We go through five molecules from patent US7592341B2, “Peptide-enhanced corneal drug delivery” (Kansas State University Research Foundation, priority 2004, dated 2009).

Data set [1] deals with MDCK monolayers. As to the kind of experiment: Methotrexate uptake in epithelial monolayer experiments. The format is cell-based, canine. The settings on record: peptide washout experiments in culture; LC-ESI-MS. As for the experimental part:
This example followed the procedures of the monolayer experiments of Example 1 in order to test the uptake of fluorescently labeled methotrexate (MTX) and MTX that was not fluorescently labeled. Enhanced uptake of the fluorescently labeld MTX was not observed during co-incubation due to adverse interactions between the peptide and the modified drugs. However, in peptide washout experiments in culture, MTX uptake increased by ten-fold. Measurement of the unlabeled MTX was performed using LC-ESI-MS and a standard MTX amount for calibration and comparison purposes.

For data set [2], the system named is corneal epithelium. As to the kind of experiment: Electron microscopy with ruthenium red of treated corneas (tight junction opening, morphology). The following applies: 30 minute preincubation samples; for corneal epithelial morphology by EM: 200 μM peptide or 0.01% BAC.
Protocol: In order to document the in situ opening of the tight junctions, peptide treated corneas were chemically fixed at the end of a dye transport assay for morphology studies. The control and test samples were treated with the dye ruthenium red, which binds to the plasma membrane of epithelium and cannot pass the tight junctions. […] As a control, the ophthalmic preservative benzalkonium chloride (BAC) was used in place of the peptide. […] NC-1059 (Seq. ID No. 1) was compared to BAC in a paired cornea experiment: 0.01% BAC solution and 200 μM ml of the peptide were incubated individually for either 15 or 30 minutes in the test chambers. The solutions were washed. 5 mL of BSS plus was added to both chambers and then spiked with 2 mL of CF. Sample aliquots were taken (100 μL) every half hour from the endothelial chamber for 6 hours. […] At the end of the experiment treated corneas were tested for residual internalized CF and then fixed for morphological analysis by EM. […] An EM study using ruthenium red to highlight the plasma membrane and grid staining to increase the contrast was performed on the 30 minute samples used to generate FIG. 5.
Data set [3] has as its system corneal epithelium. The settings on record: rabbit, in vivo. As for the experimental part:
A series of in vivo corneal epithelial permeability experiments in unanaesthetized rabbits was also conducted. NC-1059 (Seq. ID No. 1) was prepared in BSS (200 μM) and placed inside the lower eyelid of one eye with the other eye receiving an equal amount of BSS alone. The solutions were held in place for 3 minutes and then washed with BSS. After the indicated incubation periods, both eyes received 300 μM NaF or CF and the dye was kept in place for 3 or 5 minutes. After the contact period the eyes were washed with 40 mL of BSS solution. Total uptake was measured for both the control and treated eyes with an OcuMetrics, Ocular Fluorophotometer. The fold changes between the peptide treated and untreated eyes were calculated (FIG. 7). […] It would also appear that adding the dye immediately after peptide exposure results in the highest permeation. […] The reduced uptake at the 6-hour time point documents the transient effects of the peptide in vivo. This transient effect has been observed under all assay conditions: in vitro, in situ and in vivo. In the final column, the fold increase is only 1.7±1.1 (n=2). Viewed alone, this fold increase is some-what misleading because the net amount of more hydrophobic NaF taken up in eyes is higher (7.8-fold) than with the CF dye.

Data set [4] concerns small intestine epithelia. The following applies: reduction in epithelial resistance; cited from earlier work.
Data set [5] relates to rabbit cornea. As to the kind of experiment: Ex vivo transcorneal dye transport and corneal dye uptake in isolated rabbit cornea (perfusion chamber). The following applies: for residual internalized CF in cornea: washed, 200 μM peptide or 0.01% BAC, FIG. 6.
Protocol: For rabbit in vitro studies, corneas were obtained from eyes of New Zealand White rabbits weighing 5.0 to 5.5 kg, which were anesthetized and then killed by intracardiac injection of sodium pentobarbital (97.2 mg/kg). […] For a given pair of eyes, the epithelium was scraped from one of the corneas with a scalpel blade; on the opposite eye the epithelium was left intact. […] This method prevented trauma to the corneal epithelium and distortion of the corneal curvature during clamping in the acrylic-block perfusion system. The scleral rim serves as a gasket and permits the cornea to be suspended within the corneal ring.
The retina and pigment epithelium were removed and the cornea was clamped in the corneal holder. The exposed surface area for diffusion was 1.2 cm^2 for the cornea and 1.1 cm^2 for the sclera. The perfusion chamber was made of acrylic and placed in a water jacket to maintain the temperature of the cornea and perfusion medium at 35° C. A volume of 6 mL of balanced salt solution with oxidized glutathione (BBS Plus, Alcon Laboratories Inc, Fort Worth, Tex.) at pH 7.4 was placed in the endothelial chamber. The peptides were added to the balanced salt solution with oxidized glutathione at a concentration of 1 mM. Six milliliters of each solution was added to the epithelial chamber. […] Serial 0.5-mL samples were removed from each reservoir at 30-minute intervals, and after three hours at the termination of the permeability study, the remaining 3 mL was removed. […] The corneal permeability (P) was obtained by taking into account the volume (6 mL) of the endothelial chamber and the corneal area (square centimeters), as follows: P=kin endothelial chamber volume/corneal area.
Numerous paired sets of experiments were conducted using each of the two dyes. The paired experiments included a control cornea obtained from one of the eyes of a rabbit, which was bathed in the BSS+ buffer and given 100 μL of water at the start of the experiment. In the test cornea, from the second eye of the same rabbit, 100 μL of peptide was added at time zero to produce a 150-200 μM peptide solution in BSS+. Both the water and the peptide additions were made on the apical surface of the cornea. After 20-30 minutes of incubation, dye was added to the apical bathing solution (final concentration 300 μM of dye) and allowed to remain in contact with the cornea for 6 hours. […] At 30-minute intervals, 75-100 μL aliquots were removed from the endothelial bathing chamber and the concentration of the transported dye determined. In some later experiments the corneal surfaces were rinsed 2-3 times with fresh BSS+ (wash out) to remove unbound peptide prior to the addition of the dye. The peptide is added to the apical bathing chamber.
Data set [6] deals with corneal epithelium. The following applies: known; cited from earlier work.

No end group written: not given here.

`CN(Cc1cnc2nc(N)nc(N)c2n1)c1ccc(C(=O)N[C@@H](CCC(=O)O)C(=O)O)cc1` [MTX, methotrexate]: the “increase of MTX uptake” value in data set [1] is reported as “ten-fold”.
Take KKKKAARVGLGITTVLVTTIGLGVRAA [NC-1059]: in data set [2], the “corneal epithelial morphology by EM” value is recorded as “normal healthy epithelial morphology”.
Take Sodium Carboxy Fluorescein [NaF]: the “net amount of NaF taken up in eyes relative to CF dye” value in data set [3] came out at 7.8 fold.
“ZOT: zonula occludens toxin of Vibrio cholerae, 399 a.a.”: in data set [4], the onset of effects was under 20 min.
As for benzalkonium chloride [BAC], the “induced transport rates for CF in paired corneas, BAC vs NC-1059” value in data set [5] (15 min preincubation, FIG. 5A) is “appear identical”. Also, the “residual internalized CF in cornea” value in data set [5] (15 min preincubation) came out at 27.8 µg; in data set [5] (30 min preincubation), 40.7 µg. In data set [5] (30 minutes preincubation, FIG. 5B), the “induced CF translocation in paired corneas, BAC vs NC-1059” value is “begins to promote increased CF translocation after the three-hour test point”. Also, in data set [2], the “depth of ruthenium red staining of multilayered corneal epithelium” value was 4-5 layers. The “corneal epithelial morphology by EM” value in data set [2] is recorded as “altered morphology with some cells appearing swollen”. The “concentration above which BAC causes cellular damage” value in data set [6] is “greater than 0.005%”.
